What was measured:
[1] = system: NOMO1; assay: AUC of viability dose-response curve (% viability x log10 dose units); higher = less sensitive; conditions: 48 h
Procedure, shortened: (§1)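 In 1536-well plates, leukemia cells adapted to each medium (500 or 1000 cells/well) were exposed for 48 h at 37°C to library compounds in DMSO across 11 threefold doses, 47 μM down to 0.79 nM. Viability was read by CellTiter-Glo One luminescence and normalised per plate to DMSO and cell-free wells. A four-parameter log-logistic fit over log10 doses was integrated by trapezoidal rule. This yielded the area under the curve, with over-full-viability curves scaled and quality-control failures dropped.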

[2] = system: P12-Ichikawa; assay: as above; conditions: 48 h
Procedure, shortened: as §1

[3] = system: SEM cells; assay: as above; conditions: 48 h
Procedure, shortened: as §1

[4] = system: NOMO1; assay: cell viability relative to DMSO control; higher = less cytotoxic; conditions: RPMI 5 mM glucose + 10% FBS, 48 h
Procedure, shortened: (§2)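 Before seeding, each leukemia line was adapted for at least four passages in each medium. NOMO1 or SEM cells (500 cells/well) and P12-Ichikawa cells (1000 cells/well) went into 1536-well plates at 5 μl, then received library compounds in DMSO by pin dosing across 11 threefold concentrations, 47 μM to 0.79 nM. Readout was CellTiter-Glo One luminescence after 48 h at 37°C, and viability is given as a per-plate percentage of DMSO wells, with cell-free wells as background.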

[5] = system: P12-Ichikawa; assay: as above; conditions: HPLM + 10% dialyzed FBS, 48 h
Procedure, shortened: as §2

[6] = RPMI 5 mM glucose + 10% dialyzed FBS

Row | SMILES | AUC of viability dose-response curve ([1]; HPLM + 10% dialyzed FBS) | AUC of viability dose-response curve ([1]; RPMI 5 mM glucose + 10% FBS) | AUC of viability dose-response curve [1, 6] | AUC of viability dose-response curve ([2]; HPLM + 10% dialyzed FBS) | AUC of viability dose-response curve ([2]; RPMI 5 mM glucose + 10% FBS) | AUC of viability dose-response curve [2, 6] | AUC of viability dose-response curve ([3]; HPLM + 10% dialyzed FBS) | AUC of viability dose-response curve ([3]; RPMI 5 mM glucose + 10% FBS) | AUC of viability dose-response curve [3, 6] | cell viability ([4]; 0.000781 µM) [%] | cell viability ([4]; 0.00234 µM) [%] | cell viability ([4]; 0.00702 µM) [%] | cell viability ([4]; 0.0211 µM) [%] | cell viability ([4]; 0.0632 µM) [%] | cell viability ([4]; 0.19 µM) [%] | cell viability ([4]; 0.569 µM) [%] | cell viability ([4]; 1.71 µM) [%] | cell viability ([4]; 5.12 µM) [%] | cell viability ([4]; 15.4 µM) [%] | cell viability ([4]; 46.1 µM) [%] | cell viability ([5]; 0.000781 µM) [%] | cell viability ([5]; 0.00234 µM) [%] | cell viability ([5]; 0.00702 µM) [%] | cell viability ([5]; 0.0211 µM) [%] | cell viability ([5]; 0.0632 µM) [%] | cell viability ([5]; 0.19 µM) [%] | cell viability ([5]; 0.569 µM) [%] | cell viability ([5]; 1.71 µM) [%] | cell viability ([5]; 5.12 µM) [%] | cell viability ([5]; 15.4 µM) [%] | cell viability ([5]; 46.1 µM) [%]
1 | COc1cc(C(=O)N2CCC(N3CCN(C)CC3)CC2)ccc1Nc1ncc2c(n1)N(C)c1ccccc1C(=O)N2C | 419 | 435 | 412 | 428 | 435 | 433 | 376 | 374 | 363 |  |  |  |  |  |  |  |  |  |  |  |  |  |  |  |  |  |  |  |  |  | 
2 | Cc1ccc(CN2CCNCC2)cc1NC(=O)CNc1ccc(F)c(F)c1 | 435 | 459 | 444 | 454 | 457 | 445 | 447 | 464 | 431 |  |  |  |  |  |  |  |  |  |  |  |  |  |  |  |  |  |  |  |  |  | 
3 | C=CCNC1=C2C[C@@H](C)C[C@H](OC)[C@H](O)[C@@H](C)/C=C(\C)[C@H](OC(N)=O)[C@@H](OC)/C=C\C=C(/C)C(=O)NC(=CC1=O)C2=O | 390 | 389 | 385 | 403 | 380 | 384 | 310 | 285 | 291 |  |  |  |  |  |  |  |  |  |  |  |  |  |  |  |  |  |  |  |  |  | 
4 | COc1cc(C)c(Sc2cnc(NC(=O)c3ccc(CNC(C)C(C)(C)C)cc3)s2)cc1C(=O)N1CCN(C(C)=O)CC1 (stereo not drawn) | 442 | 453 | 437 | 447 | 444 | 439 | 365 | 358 | 350 | 116 | 131 | 124 | 128 | 127 | 124 | 132 | 115 | 114 | 115 | 17 | 125 | 129 | 120 | 120 | 122 | 127 | 115 | 110 | 109 | 101 | 7.33
